Test results as given in patent publication US11319324B2, “Pyrazolo-pyrrolo-pyrimidine-dione derivatives as P2X3 inhibitors” (Bayer Aktiengesellschaft, priority 2017, dated 2022).

Assays:
Format in all cases: cell-based
human P2X2/3 receptors = molecular target: T1, human P2X2/3 receptors (Homo sapiens, UniProt P56373+Q9UBL9); test: Intracellular calcium measurement, antagonist activity at human P2X2/3 receptors (hP2X23 1321N1), Fluo8; conditions: for IC50: column 4); 1321N1 cells, human P2X2/3, Fluo8, agonist ATP at EC50; read-out: 4) hP2X2/3 IC50 [nM] (1321N1); for hP2X23/hP2X3* Selectivity (1321N1): ratio of column 4) hP2X2/3 to column 3) hP2X3, 1321N1
T1 construct: expressed in transfected cells; host or cells: human astrocytoma 1321N1 (1312N1 [sic])
T1 sequence (P56373 1-397): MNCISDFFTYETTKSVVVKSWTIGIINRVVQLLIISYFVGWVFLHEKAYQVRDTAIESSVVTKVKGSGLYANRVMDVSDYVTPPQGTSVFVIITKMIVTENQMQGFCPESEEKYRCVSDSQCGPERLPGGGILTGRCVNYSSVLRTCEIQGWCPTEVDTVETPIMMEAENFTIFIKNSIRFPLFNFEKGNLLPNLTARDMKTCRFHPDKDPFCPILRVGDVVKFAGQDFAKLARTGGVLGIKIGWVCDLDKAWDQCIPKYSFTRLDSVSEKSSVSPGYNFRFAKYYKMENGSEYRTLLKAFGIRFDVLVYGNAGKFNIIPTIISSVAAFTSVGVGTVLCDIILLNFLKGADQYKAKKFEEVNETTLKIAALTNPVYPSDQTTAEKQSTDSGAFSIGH
T1 sequence (Q9UBL9 1-471): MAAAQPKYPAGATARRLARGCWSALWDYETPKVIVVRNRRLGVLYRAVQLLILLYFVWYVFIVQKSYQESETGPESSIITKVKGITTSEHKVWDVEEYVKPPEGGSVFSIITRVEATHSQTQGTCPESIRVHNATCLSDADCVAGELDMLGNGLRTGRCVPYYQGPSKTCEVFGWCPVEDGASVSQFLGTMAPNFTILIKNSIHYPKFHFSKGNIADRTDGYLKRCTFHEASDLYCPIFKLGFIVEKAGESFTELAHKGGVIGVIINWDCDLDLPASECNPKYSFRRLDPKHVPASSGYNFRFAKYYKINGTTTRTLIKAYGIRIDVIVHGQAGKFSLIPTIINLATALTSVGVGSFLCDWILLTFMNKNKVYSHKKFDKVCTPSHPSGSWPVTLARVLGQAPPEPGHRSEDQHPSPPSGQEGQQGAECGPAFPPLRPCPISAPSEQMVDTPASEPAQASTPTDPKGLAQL
Outline: (§1)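 Inhibition of ATP-triggered Ca2+ transients is measured in 1321N1 cells expressing P2X3 homotrimers or P2X2/3 heterotrimers.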

human P2X3 receptor [1] = molecular target: T2, human P2X3 receptor (Homo sapiens, UniProt P56373); test: Intracellular calcium measurement to assess antagonist activity at human P2X3 receptors (hP2X3 CHO), photina luminescence; set-up: expressed in transfected cells; host or cells: Chinese hamster ovary (CHO) cells; conditions: column 2), CHO cells, agonist α,β-methylene-ATP at EC50
T2 sequence (P56373 1-397): T1 sequence (P56373 1-397)
Outline: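 CHO cells stably expressing human P2X3 and mitochondrial photina, plated the day before at 30 °C, then loaded 3 h at 37 °C in 2 mM Ca-tyrode buffer with 5 μg/ml coelenterazine. Agonist-evoked calcium luminescence read immediately; inhibition seen as signal decrease.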

human P2X3 receptor [2] = molecular target: T2, human P2X3 receptor; test: Intracellular calcium measurement to assess antagonist activity at human P2X3 receptors (hP2X3 FLIPR); set-up: expressed in transfected cells; host or cells: human astrocytoma 1321N1 (1312N1 [sic]); conditions: head prints (1321N1); read-out: 1) hP2X3 IC50 [nM] (1321N1)
Protocol: 1) Intracellular Calcium Measurement to Assess Antagonist Activity at Human P2X3 Receptors (hP2X3 FLIPR)
A fluorescent imaging plate reader (FLEX/FLIPR station; Molecular Devices) was used to monitor intracellular calcium levels using the calcium-chelating dye Fluo-4 (Molecular Probes). The excitation and emission wavelengths used to monitor fluorescence were 470-495 nm and 515-575 nm, respectively. The human astrocytoma […] cells expressing purinergic receptors P2X3 (human) were plated at a density of 15,000 cells/well in collagen—coated 384-well plates approximately 20 hours before beginning the assay. […] The dye supernatant was removed and replaced with 45 μl probenecid buffer (Hank's balanced salt solution, 20 mM HEPES, 0.5 mM CaCl2, 0.5 mM MgCl2, 0.1% BSA, 5 mM probenecid, 10 mM D-glucose monohydrate, pH=7.4). The test compounds were added in a volume of 5 μl and allowed to incubate for 30 min at 37° C. The final assay DMSO concentration is 1%. […] The fluorescence was measured for an interval of 90 sec at 2 sec intervals and analyzed based on the increase in peak relative fluorescence units (RFU) compared to the basal fluorescence. Peak fluorescence was used to determine the response to agonist obtained at each concentration of test compound by the following equation: Response=100*(RFU(test compound)−RFU(control))/(RFU(DMSO)−RFU(control))
The Examples were tested in triplicates per plate and mean values were plotted in Excel XLFit to determine IC50 values at the human P2X3 and human P2X2/3 receptors, percentage of maximal inhibition and the Hill coefficients.

human P2X3 receptor [3] = molecular target: T2, human P2X3 receptor; test: Intracellular calcium measurement, antagonist activity at human P2X3 receptors (hP2X3 1321N1), Fluo8; set-up: expressed in transfected cells; host or cells: human astrocytoma 1321N1 (1312N1 [sic]); conditions: column 3); 1321N1 cells, human P2X3, Fluo8, agonist ATP at EC50
Outline: as §1

| SMILES | IC50 (human P2X2/3 receptors) | hP2X23/hP2X3* Selectivity (1321N1) (human P2X2/3 receptors) | IC50 (human P2X3 receptor [1]) | IC50 (human P2X3 receptor [2]) | IC50 (human P2X3 receptor [3]) |
| --- | --- | --- | --- | --- | --- |
| COC[C@H](C)N1Cc2c(n(CC(=O)Nc3ccc(F)cn3)c3cc(C(C)C)nn3c2=O)C1=O [Example 39] | 7550 nM | 308 | 29 nM | 14 nM | 25 nM |
| CC[C@H](C)N1Cc2c(n(CC(=O)Nc3ccc(F)cn3)c3cc(C(F)(F)F)nn3c2=O)C1=O [Example 20] | > 22000 nM | >41 | 375 nM | 312 nM | 537 nM |
| CC(C)(C)c1cc2n(CC(=O)Nc3ccc(F)cn3)c3c(c(=O)n2n1)CN(C1CCOCC1)C3=O [Example 33] | > 21500 nM | >72 | 165 nM | 276 nM | 297 nM |
| CCc1cc2n(CC(=O)Nc3ccc(F)cn3)c3c(c(=O)n2n1)CN(C(C)C)C3=O [Example 24] | 10000 nM | 132 | 60 nM | 35 nM | 76 nM |
| CC(C)c1cc2n(CC(=O)Nc3ccc(F)cn3)c3c(c(=O)n2n1)CN(CC(C)(C)O)C3=O [Example 51] | 11500 nM | 46 | 160 nM | 311 nM | 253 nM |
| COCC(C)N1Cc2c(n(CC(=O)Nc3ccc(F)cn3)c3cc(C(=O)N(C)C)nn3c2=O)C1=O (racemic) [Example 140, 4-{2-[(5-fluoropyridin-2-yl)amino]-2-oxoethyl}-6-[(±)-1-methoxypropan-2-yl]-N,N-dimethyl-5,8-dioxo-5,6,7,8-tetrahydro-4H-pyrazolo[1,5-a]pyrrolo[3,4-d]pyrimidine-2-carboxamide] | > 20900 nM | >183 | 55 nM | 57 nM | 115 nM |
| COC[C@H](C)N1Cc2c(n(CC(=O)Nc3ccc(F)cn3)c3cc(C)nn3c2=O)C1=O [Example 41] | > 32000 nM | >393 | 51 nM | 55 nM | 82 nM |
| CC(C)(C)c1cc2n(CC(=O)Nc3ccc(F)cn3)c3c(c(=O)n2n1)CN(C1CCC1)C3=O [Example 17] | > 18100 nM | >345 | 72 nM | 31 nM | 53 nM |
| CC(C)N1Cc2c(n(CC(=O)Nc3ccc(Cl)cn3)c3cc(C(F)(F)F)nn3c2=O)C1=O [Example 29] | 4150 nM | 115 | 41 nM | 62 nM | 36 nM |
| COC[C@H](C)N1Cc2c(n(CC(=O)Nc3ccc(F)cn3)c3cc(C(F)(F)F)nn3c2=O)C1=O [Example 37] | > 32000 nM | >160 | 135 nM | 82 nM | 200 nM |
| COCC(C)N1Cc2c(n(CC(=O)Nc3ccc(F)cn3)c3cc(Br)nn3c2=O)C1=O (stereo not shown) [Example 36, 2-[2-bromo-6-(1-methoxypropan-2-yl)-5,8-dioxo-5,6,7,8-tetrahydro-4H-pyrazolo[1,5-a]pyrrolo[3,4-d]pyrimidin-4-yl]-N-(5-fluoropyridin-2-yl)acetamide] | > 20900 nM | >368 | 44 nM | 34 nM | 57 nM |
| CC(C)N1Cc2c(n(CC(=O)Nc3ccc(Cl)cn3)c3cc(C(C)(C)C)nn3c2=O)C1=O [Example 3] | 2850 nM | 78 | 147 nM | 32 nM | 37 nM |

The next lines start with the values.

| IC50 (human P2X2/3 receptors) | hP2X23/hP2X3* Selectivity (1321N1) (human P2X2/3 receptors) | IC50 (human P2X3 receptor [1]) | IC50 (human P2X3 receptor [2]) | IC50 (human P2X3 receptor [3]) | SMILES |
| --- | --- | --- | --- | --- | --- |
| 8000 nM | 167 | 71 nM | 28 nM | 48 nM | CC(C)c1cc2n(CC(=O)Nc3ccc(F)cn3)c3c(c(=O)n2n1)CN(C(C)C)C3=O [Example 7] |
| 11500 nM | 194 | 60 nM | 30 nM | 59 nM | CC[C@@H](C)N1Cc2c(n(CC(=O)Nc3ccc(F)cn3)c3cc(C(F)(F)F)nn3c2=O)C1=O [Example 14] |
| > 21000 nM | >34 | 175 nM | 161 nM | 627 nM | CC(C)(C)c1cc2n(CC(=O)Nc3ccc(F)cn3)c3c(c(=O)n2n1)CN(CC(=O)N1CCCC1)C3=O [Example 38] |
| > 32000 nM | >122 | 155 nM | 215 nM | 263 nM | C[C@H](O)CN1Cc2c(n(CC(=O)Nc3ccc(F)cn3)c3cc(C(C)(C)C)nn3c2=O)C1=O [Example 54] |
| 12300 nM | 30 | 305 nM | 146 nM | 410 nM | CC(C)(C)c1cc2n(CC(=O)Nc3ccc(F)cn3)c3c(c(=O)n2n1)CN(CC1CCOCC1)C3=O [Example 28] |
| > 22000 nM | >110 | 195 nM | 133 nM | 200 nM | CC[C@H](C)N1Cc2c(n(CC(=O)Nc3ccc(F)cn3)c3cc(C)nn3c2=O)C1=O [Example 53] |
| > 22000 nM | >119 | 135 nM | 219 nM | 185 nM | CC(C)N1Cc2c(n(CC(=O)Nc3ccccn3)c3cc(C(C)(C)C)nn3c2=O)C1=O [Example 2] |
| > 20600 nM | >11134 | 64 nM | 80 nM | 153 nM | Cc1cc2n(CC(=O)Nc3ccc(F)cn3)c3c(c(=O)n2n1)CN(C(C)C)C3=O [Example 23] |
| 7150 nM | 624 | 23 nM | 10 nM | 11 nM | COCC(C)N1Cc2c(n(CC(=O)Nc3ccc(F)cn3)c3cc(C(C)(C)C)nn3c2=O)C1=O (stereo not shown) [Example 25] |
| 4650 nM | 88 | 49 nM | 21 nM | 53 nM | CC[C@@H](C)N1Cc2c(n(CC(=O)Nc3ccc(Cl)cn3)c3cc(C(F)(F)F)nn3c2=O)C1=O [Example 15] |
| 2450 nM | 54 | 20 nM | 22 nM | 46 nM | CC(C)(C)c1cc2n(CC(=O)Nc3ccc(F)cn3)c3c(c(=O)n2n1)CN(C1CCCC1)C3=O [Example 26] |
